How the values were obtained:
[1] = target: T1, EP4 (Homo sapiens, UniProt P35408); test: hEP4 cAMP Assay (BT549 breast cancer cells, HTRF cAMP, PGE2 6 nM); assay type: cell-based; settings: antagonistic activity, PGE2 6 nM (EC80)
T1 construct: BT549 breast cancer cells, express high endogenous EP4 levels and very low EP2 levels; host or cells: BT549 breast cancer cells
Experimental: (§1) The antagonistic activities of the compounds of formula (I) on the EP2 and EP4 receptors are also determined in accordance with the following experimental method.
(§2) Human tumor cell lines expressing endogenously either EP4 or EP2 are used and cAMP accumulation in cells upon PGE2 stimulation is monitored. SF295 glioblastoma cells express high endogenous EP2 and no EP4, whereas BT549 breast cancer cells, express high endogenous EP4 levels and very low EP2 levels.
(§3) As a detection method for cAMP the HTRF (homogeneous time resolved fluorescence) Cisbio kit (HTRF cAMP dynamic 2 kit 20′000 tests Cisbio Cat. #62AM4PEC) was used, which is based on a competitive immunoassay using a Cryptate-labeled anti-cAMP antibody and d2-labeled cAMP. Native cAMP produced by cells or unlabeled cAMP (for the standard curve) compete with exogenously added d2-labeled cAMP (acceptor) for binding to monoclonal anti-cAMP-Eu3+Cryptate (donor). A FRET signal (Fluorescence Resonance Energy Transfer) is obtained only if the labeled anti-cAMP antibody binds the d2 labelled cAMP, thus the specific signal (i.e. energy transfer) is inversely proportional to the concentration of cAMP in the standard or sample.
(§4) The BT549 cells (NCI/No. 0507282) are detached from culture dishes with a cell dissociation buffer (Invitrogen, 13151-014), and collected in growing medium (GM: RPMI1640 (Invitrogen 21875)/10% FCS, 1% Penicilin/streptomycin). Cells are counted washed and resuspended in assay buffer (AB; HBSS, 20 mM HEPES, 0.2% BSA; 2 mM IBMX). 4′000 cells in 5 μL of AB are seeded per well of a small volume 384 well plate (black with flat bottom, Greiner 784076).
(§5) Stock solutions of test compounds are made at a concentration of 10 mM in DMSO, and serially diluted in DMSO to concentrations required for inhibition dose response curves (tested concentration range 30 μM-0.4 nM; 30 μM-0.015 nM or 1 μM-0.01 nM).
PGE2 (Cayman 14010, stock solution: 6 uM in DMSO) is used as agonist at 6 nM final concentration, corresponding to EC80.
(§6) 2.5 μL of diluted compounds are transferred into the assay plate. Plate is pre-incubated 45 minutes at room temperature. Subsequently, 2.5 μL of PGE2 (final conc. 6 nM) are transferred into the assay plate. Plate is incubated 30 minutes at room temperature. 5 μL of each donor (anti-cAMP cryptate) and acceptor (cAMP-d2) are added and the plate is incubated another hour at room temperature in the dark and then read using a BMG LABTECH PHERAstar reader (Excitation: 337 nm, Emission: 620 and 665 nm).
(§7) The obtained Delta F (fluorescence) values (665 nm/620 nM) are converted into % cAMP values using the measurements of the cAMP calibrator provided in the kit. For each compound concentration the percentage of cAMP compared to DMSO control value as average ±STDEV (each concentration is measured in duplicate) is calculated.
(§8) IC50 values and curves are generated with XLfit software (IDBS) using Dose-Response One Site model 203. When compounds were measured multiple times, mean values are given.

[2] = target: T2, EP2 (Homo sapiens, UniProt P43116); test: hEP2 cAMP Assay (SF295 glioblastoma cells, HTRF cAMP, PGE2 75 nM); assay type: cell-based; settings: antagonistic activity, PGE2 75 nM (EC80)
T2 construct: SF295 glioblastoma cells express high endogenous EP2 and no EP4; host or cells: SF295 glioblastoma cells
T2 sequence (P43116 whole entry): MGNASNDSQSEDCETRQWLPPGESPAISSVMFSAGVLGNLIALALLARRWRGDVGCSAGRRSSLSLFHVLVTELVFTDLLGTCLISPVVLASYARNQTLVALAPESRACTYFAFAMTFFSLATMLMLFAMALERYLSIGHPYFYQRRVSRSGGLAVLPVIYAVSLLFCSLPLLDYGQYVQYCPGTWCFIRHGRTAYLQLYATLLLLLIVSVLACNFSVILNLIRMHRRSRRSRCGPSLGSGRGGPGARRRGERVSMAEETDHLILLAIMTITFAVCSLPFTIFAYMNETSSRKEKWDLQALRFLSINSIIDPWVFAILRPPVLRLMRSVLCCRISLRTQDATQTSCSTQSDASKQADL
Experimental: as §1, §2, §3
as §4, with “SF295” for “BT549”, “0503170)” for “0507282)”, “RPM11640” for “RPMI1640”
as §5
PGE2 (Cayman 14010, stock solution: 75 μM in DMSO) is used as agonist at 75 nM final concentration, corresponding to EC80.
as §6, with “conc. 75” for “conc. 6”, “temperature. Five” for “temperature. 5”
as §7, §8

T1 sequence (P35408 whole entry): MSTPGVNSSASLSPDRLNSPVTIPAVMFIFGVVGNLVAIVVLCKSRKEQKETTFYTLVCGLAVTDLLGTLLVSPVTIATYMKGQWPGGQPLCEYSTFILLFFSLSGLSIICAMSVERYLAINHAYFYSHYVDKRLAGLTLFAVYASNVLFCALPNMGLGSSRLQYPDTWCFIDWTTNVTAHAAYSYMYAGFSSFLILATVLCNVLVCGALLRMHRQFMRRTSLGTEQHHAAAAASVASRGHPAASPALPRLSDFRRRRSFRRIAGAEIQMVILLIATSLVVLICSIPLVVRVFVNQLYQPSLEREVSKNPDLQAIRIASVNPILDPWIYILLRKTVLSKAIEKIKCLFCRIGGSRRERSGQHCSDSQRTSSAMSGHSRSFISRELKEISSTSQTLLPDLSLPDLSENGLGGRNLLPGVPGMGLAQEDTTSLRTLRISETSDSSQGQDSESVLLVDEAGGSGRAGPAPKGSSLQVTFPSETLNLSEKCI

Compound	IC50 [1] [nM]	IC50 [2] [nM]
5-{6-[2-(6-Fluoro-2-methoxy-quinolin-8-yl)-ethylamino]-pyrimidin-4-yl}-3-trifluoromethyl-thiophene-2-carboxylic acid [Example 153]	283	438
CCOc1cc(-c2cc(NCCc3c(Br)ccc4ccccc34)ncn2)sc1C(=O)O [Example 10, 5-{6-[2-(2-Bromo-naphthalen-1-yl)-ethylamino]-pyrimidin-4-yl}-3-ethoxy-thiophene-2-carboxylic acid]	22	5
CCOc1cc(-c2cc(NCCc3c(C)c(C)cc4ccccc34)ncn2)ccc1C(=O)O [Example 11, 4-{6-[2-(2,3-Dimethyl-naphthalen-1-yl)-ethylamino]-pyrimidin-4-yl}-2-ethoxy-benzoic acid]	885	261
O=C(O)c1ccc(-c2cc(NCCc3cccc4cccnc34)ncn2)cc1OC1CCC1 [Example 22, 2-Cyclobutoxy-4-[6-(2-quinolin-8-yl-ethylamino)-pyrimidin-4-yl]-benzoic acid]	613	949
CCOc1cc(-c2cc(NCCc3cccc4c3OCO4)ncn2)sc1C(=O)O [Example 36, 5-[6-(2-Benzo[1,3]dioxol-4-yl-ethylamino)-pyrimidin-4-yl]-3-ethoxy-thiophene-2-carboxylic acid]	368	262
CCCOc1ccc2ccccc2c1CCNc1cc(-c2cc(OCC)c(C(=O)O)s2)ncn1 [Example 38, 3-Ethoxy-5-{6-[2-(2-propoxy-naphthalen-1-yl)-ethylamino]-pyrimidin-4-yl}-thiophene-2-carboxylic acid]	48	22
CCOc1cc(-c2cc(NCCc3cc(OC)cc4ccccc34)ncn2)ccc1C(=O)O [Example 40, 2-Ethoxy-4-{6-[2-(3-methoxy-naphthalen-1-yl)-ethylamino]-pyrimidin-4-yl}-benzoic acid]	853	525
COc1cc(CCNc2cc(-c3ccc(C(=O)O)c(OC4CCC4)c3)ncn2)c2ccccc2c1 [Example 41, 2-Cyclobutoxy-4-{6-[2-(3-methoxy-naphthalen-1-yl)-ethylamino]-pyrimidin-4-yl}-benzoic acid]	711	297
COc1ccc2c(c1CCNc1cc(-c3ccc(C(=O)O)c(OC4CCC4)c3)ncn1)OCO2 [Example 43, 2-Cyclobutoxy-4-{6-[2-(5-methoxy-benzo[1,3]dioxol-4-yl)-ethylamino]-pyrimidin-4-yl}-benzoic acid]	797	252
CCOc1cc(-c2cc(NCCc3cccc4ccn(C)c34)ncn2)ccc1OCC(=O)O [Example 50, (2-Ethoxy-4-{6-[2-(1-methyl-1H-indol-7-yl)-ethylamino]-pyrimidin-4-yl}-phenoxy)-acetic acid]	631	399
CCOc1cc(-c2cc(NCCc3cccc4ccoc34)ncn2)ccc1OCC(=O)O [Example 51]	853	473
COc1ccc2c(OC)cccc2c1CCNc1cc(-c2ccc(C(=O)O)c(OC3CCC3)c2)ncn1 [Example 52, 2-Cyclobutoxy-4-{6-[2-(2,5-dimethoxy-naphthalen-1-yl)-ethylamino]-pyrimidin-4-yl}-benzoic acid]	758	779
CCOc1cc(-c2cc(NCCc3c(OC)ccc4c(OC)cccc34)ncn2)ccc1C(=O)O [Example 54, 4-{6-[2-(2,5-Dimethoxy-naphthalen-1-yl)-ethylamino]-pyrimidin-4-yl}-2-ethoxy-benzoic acid]	420	878
CCOc1cc(-c2cc(NCCc3c(OC)ccc4c(OC)cccc34)ncn2)ccc1OCC(=O)O [Example 55, (4-{6-[2-(2,5-Dimethoxy-naphthalen-1-yl)-ethylamino]-pyrimidin-4-yl}-2-ethoxy-phenoxy)-acetic acid]	300	829
CCOc1cc(-c2cc(NCCc3cccc4cc(C)n(C)c34)ncn2)ccc1OCC(=O)O [Example 57, (4-{6-[2-(1,2-Dimethyl-1H-indol-7-yl)-ethylamino]-pyrimidin-4-yl}-2-ethoxy-phenoxy)-acetic acid]	962	508
COc1ccc(CCNc2cc(-c3ccc(C(=O)O)c(OC4CCC4)c3)ncn2)c2ccccc12 [Example 58, 2-Cyclobutoxy-4-{6-[2-(4-methoxy-naphthalen-1-yl)-ethylamino]-pyrimidin-4-yl}-benzoic acid]	401	825
CCOc1cc(-c2cc(NCCc3ccc(OC)c4ccccc34)ncn2)ccc1OCC(=O)O [Example 60, (2-Ethoxy-4-{6-[2-(4-methoxy-naphthalen-1-yl)-ethylamino]-pyrimidin-4-yl}-phenoxy)-acetic acid]	384	845
CCOc1cc(-c2cc(NCCc3cccc4cc(C)oc34)ncn2)ccc1OCC(=O)O [Example 75, (2-Ethoxy-4-{6-[2-(2-methyl-benzofuran-7-yl)-ethylamino]-pyrimidin-4-yl}-phenoxy)-acetic acid]	889	976
CCOc1cc(-c2cc(NCCc3cccc4ccccc34)ncn2)ccc1OCC(=O)O [Example 77]	403	418
CCOc1cc(-c2cc(NCCc3c(C)ccc4c3cnn4C)ncn2)ccc1OCC(=O)O [Example 80, (4-{6-[2-(1,5-Dimethyl-1H-indazol-4-yl)-ethylamino]-pyrimidin-4-yl}-2-ethoxy-phenoxy)-acetic acid]	495	338
O=C(O)c1sc(-c2cc(NCCc3cccc4cccnc34)ncn2)cc1C(F)(F)F [Example 82, 5-[6-(2-Quinolin-8-yl-ethylamino)-pyrimidin-4-yl]-3-trifluoromethyl-thiophene-2-carboxylic acid]	960	987
Cc1ccc2c(cnn2C)c1CCNc1cc(-c2ccc(-c3c(O)c(=O)c3=O)cc2)ncn1 [Example 92, 3-(4-{6-[2-(1,5-Dimethyl-1H-indazol-4-yl)-ethylamino]-pyrimidin-4-yl}-phenyl)-4-hydroxy-cyclobut-3-ene-1,2-dione]	544	287
CCNC(=O)Nc1ccc(-c2cc(NCCc3c(OC)ccc4ncccc34)ncn2)cc1OC [Example 98, 1-Ethyl-3-(2-methoxy-4-{6-[2-(6-methoxy-quinolin-5-yl)-ethylamino]-pyrimidin-4-yl}-phenyl)-urea]	335	354
CCOc1cc(-c2cc(NCCc3cccc4ccsc34)ncn2)ccc1OCC(=O)O [Example 104]	356	335
CCOc1cc(-c2cc(NCCc3cccc4ccsc34)ncn2)ccc1CC(=O)O [Example 105, {4-[6-(2-Benzo[b]thiophen-7-yl-ethylamino)-pyrimidin-4-yl]-2-ethoxy-phenyl}-acetic acid]	685	784
CCOc1cc(-c2cc(NCCc3cccc4sccc34)ncn2)ccc1C(=O)O [Example 106, 4-[6-(2-Benzo[b]thiophen-4-yl-ethylamino)-pyrimidin-4-yl]-2-ethoxy-benzoic acid]	867	258

Reference: patent US11446298B2, “Pyrimidine derivatives” (Idorsia Pharmaceuticals Ltd, priority 2017, dated 2022)
